{
  "source": "patent US20240180093A1",
  "about": "“GENETIC MARKERS AND SOYBEAN PLANTS WITH INCREASED TOLERANCE TO DICAMBA” (THE CURATORS OF THE UNIVERSITY OF MISSOURI, priority 2022, published 2024)",
  "key": {"soybean accessions": {"system": "soybean accessions", "details": "for Mean off-target dicamba damage score: 1 to 5 scale", "from_the_text": "A total of 382 genetically diverse soybean accessions with maturity groups (MG) ranging from MG 3 to 5 were used in this study. These comprise a subset of the USDA Soybean Germplasm Collection and originated from […], including Algeria (2), China (226), Costa Rica (1), Georgia (2), Indonesia (1), Japan (38), Nepal (1), North Korea (20), Russia (5), South Africa (1), South Korea (32), Taiwan (3), United States (40), and Vietnam (5). Five accessions have unknown origins. The USDA Soybean Germplasm Collection was genotyped with the SoySNP50K BeadChip.\nField trials were conducted in three environments for two years (2020-2021) using a two-replicate randomized complete block design in Portageville, MO (36°23′44.2″N lat; 89°36′52.3″W long) and Clarkton, MO (36°29′14.8″N lat; 89°57′39.0″W long). Each plot consisted of a single 2.13 m long row spaced 0.76 m apart.\nEach year, genotypes were visually assessed for off-target dicamba damage once in the early reproductive stage between R1 to R3 (approximately […]). Lines were rated on a 1 to 5 scale with 0.5 increments.\nAdjusted means across environments were calculated using the function ‘ls_means’ of the R package ‘lmerTest’ (available at https://www.r-project.org/) based on a mixed-effects linear model conducted with the package ‘lme4’. The model included the fixed effect of genotype, the random interaction between genotype and environment (G×E), the random effect of environment, and the nested random effect of replication within the environment. To measure the consistency and inter-relatedness of the damage ratings across environments, Cronbach's alpha (α) score was calculated each year using the R package ‘psych’ (Revelle, 2021) based on Eq. 1."}, "[1]": {"details": "cited from earlier work"}},
  "note": "Where two headings read alike, the source gives them in different places.",
  "data": [
    {"smiles": "COc1c(Cl)ccc(Cl)c1C(=O)O", "note": "[dicamba, 3,6-dichloro-2-methoxybenzoic acid]", "values": [
      {"measurement": "Mean off-target dicamba damage score", "setting": "soybean accessions; environment 2020-Clarkton", "result": 2.70},
      {"measurement": "Mean off-target dicamba damage score", "setting": "soybean accessions; environment 2021-Clarkton", "result": 2.80},
      {"measurement": "Mean off-target dicamba damage score", "setting": "soybean accessions; environment 2021-LeeFarm", "result": 2.60},
      {"measurement": "Mean off-target dicamba damage score", "setting": "soybean accessions; overall, three environments 2020-2021, 382 accessions", "result": 2.70},
      {"measurement": "average damage", "setting": "soybean accessions; accession PI 88788", "result": 3.5},
      {"measurement": "average damage", "setting": "soybean accessions; accession PI 342434 (Japan)", "result": 1.5},
      {"measurement": "average damage", "setting": "soybean accessions; accession PI 424005 (South Korea)", "result": 1.2},
      {"measurement": "average damage", "setting": "soybean accessions; accession PI 424038-B (South Korea)", "result": 1.3},
      {"measurement": "average damage", "setting": "soybean accessions; accession PI 547862 (L83-570, United States)", "result": 4.1},
      {"measurement": "average damage", "setting": "soybean accessions; accession PI 552538 (Dunbar, United States)", "result": 4.2},
      {"measurement": "average damage", "setting": "soybean accessions; accession PI 561701 (G88-20092, United States)", "result": 1.4},
      {"measurement": "average damage", "setting": "soybean accessions; accession PI 597387 (Pana, United States)", "result": 4.5},
      {"measurement": "average damage", "setting": "soybean accessions; accession PI 598124 (Maverick, United States)", "result": 4.3},
      {"measurement": "average damage", "setting": "soybean accessions; accession PI 603497 (China)", "result": 1.4},
      {"measurement": "average damage", "setting": "soybean accessions; accession PI 603675 (China)", "result": 4.5},
      {"measurement": "average damage", "setting": "soybean accessions; accessions derived from Asia", "result": 2.6},
      {"measurement": "average damage", "setting": "soybean accessions; accessions derived from the Americas", "result": 3.0},
      {"measurement": "average damage", "setting": "soybean accessions; accessions from China", "result": 2.7},
      {"measurement": "average damage", "setting": "soybean accessions; accessions from Costa Rica", "result": 3.1},
      {"measurement": "average damage", "setting": "soybean accessions; accessions from Japan", "result": 2.6},
      {"measurement": "average damage", "setting": "soybean accessions; accessions from South Korea", "result": 2.5},
      {"measurement": "average damage", "setting": "soybean accessions; accessions from the United States", "result": 2.3},
      {"measurement": "average damage", "setting": "soybean accessions; accessions of maturity group MG 3", "result": 2.8},
      {"measurement": "average damage", "setting": "soybean accessions; accessions of maturity group MG 4", "result": 2.7},
      {"measurement": "average damage", "setting": "soybean accessions; accessions of maturity group MG 5", "result": 2.5},
      {"measurement": "mean score of dicamba damage", "setting": "soybean accessions; genotypes carrying all three favorable alleles (ss715605561, ss715635349, ss715632413)", "result": 1.58},
      {"measurement": "mean score of dicamba damage", "setting": "soybean accessions; genotypes carrying all three unfavorable alleles (ss715605561, ss715635349, ss715632413)", "result": 2.90}
    ]},
    {"smiles": "O=C(O)CNCP(=O)(O)O", "note": "[glyphosate, N-(phosphonomethyl)glycine]", "values": [
      {"measurement": "water solubility", "setting": "[1]", "result": "high water solubility"}
    ]}
  ]
}
